Results reported in ChEMBL document CHEMBL4382229, “Benzofuran derivatives and their anti-tubercular, anti-bacterial activities” (Eur J Med Chem, 2019).
Converted amounts (≈) assume the structure as drawn.

Legend:
Format in all cases: functional
Staphylococcus aureus [1] = test: Antibacterial activity against Staphylococcus aureus assessed as diameter of inhibition zone at 250 ug/ml after 24 hrs by disc diffusion method; conditions: read-out: DIZ
Pseudomonas aeruginosa [2] = test: Antibacterial activity against Pseudomonas aeruginosa ATCC 27953 assessed as diameter of inhibition zone at 5 ug/ml after 24 hrs by agar disc diffusion method; conditions: ATCC 27953, 24 h, read-out: IZ
Pseudomonas aeruginosa [3] = test: Antibacterial activity against Pseudomonas aeruginosa NCIB 8650 assessed as zone of inhibition at 1 ug/ml after 24 hrs by agar diffusion method; conditions: NCIB 8650, 24 h, read-out: IZ
Escherichia coli [4] = test: Antibacterial activity against Escherichia coli NCIM 2064 assessed as zone of inhibition at 1 ug/ml after 24 hrs by agar diffusion method; conditions: NCIM 2064, 24 h, read-out: IZ
Staphylococcus aureus [5] = test: Antibacterial activity against Staphylococcus aureus NCIM 2079 assessed as zone of inhibition at 1 ug/ml after 24 hrs by agar diffusion method; conditions: NCIM 2079, 24 h, read-out: IZ
Escherichia coli [6] = test: Antibacterial activity against Escherichia coli ATCC 25922 assessed as diameter of inhibition zone at 5 ug/ml after 24 hrs by agar disc diffusion method; conditions: ATCC 25922, 24 h, read-out: IZ
Bacillus subtilis [7] = test: Antibacterial activity against Bacillus subtilis NCIM 2439 assessed as zone of inhibition at 1 ug/ml after 24 hrs by agar diffusion method; conditions: NCIM 2439, 24 h, read-out: IZ
Escherichia coli [8] = test: Antibacterial activity against Escherichia coli assessed as diameter of inhibition zone at 250 ug/ml after 24 hrs by disc diffusion method; conditions: read-out: DIZ
Proteus vulgaris [9] = test: Antibacterial activity against Proteus vulgaris after 24 hrs
Proteus vulgaris [10] = test: Potency index, ratio of norfloxacin MIC to test compound MIC for Proteus vulgaris
Staphylococcus aureus [11] = test: Antibacterial activity against Staphylococcus aureus assessed as zone of inhibition at 50 ug/ml after 3 days by filter paper disc method; conditions: 72 h, read-out: IZ
Pseudomonas aeruginosa [12] = test: Antibacterial activity against Pseudomonas aeruginosa assessed as zone of inhibition at 50 ug/ml after 3 days by filter paper disc method; conditions: 72 h, read-out: IZ
Staphylococcus aureus [13] = test: Antibacterial activity against Staphylococcus aureus assessed as zone of inhibition at 1 mg/ml after 32 hrs by agar-well diffusion method; conditions: read-out: IZ
Pseudomonas aeruginosa [14] = test: Antibacterial activity against Pseudomonas aeruginosa assessed as zone of inhibition at 1 mg/ml after 32 hrs by agar-well diffusion method; conditions: read-out: IZ
Bacillus subtilis [15] = test: Antibacterial activity against Bacillus subtilis assessed as zone of inhibition at 50 ug/ml after 3 days by filter paper disc method; conditions: 72 h, read-out: IZ
Escherichia coli [16] = test: Antibacterial activity against Escherichia coli ATCC 25922 after 24 hrs; conditions: ATCC 25922, 24 h
Escherichia coli [17] = test: Antibacterial activity against Escherichia coli assessed as zone of inhibition at 1 mg/ml after 32 hrs by agar-well diffusion method; conditions: read-out: IZ
Staphylococcus aureus [18] = test: Antibacterial activity against Staphylococcus aureus ATCC 25923 after 24 hrs; conditions: ATCC 25923, 24 h
Klebsiella pneumoniae = test: Antibacterial activity against Klebsiella pneumoniae assessed as zone of inhibition at 1 mg/ml after 32 hrs by agar-well diffusion method; conditions: read-out: IZ
Bacillus spizizenii [19] = test: Antibacterial activity against Bacillus subtilis ATCC 6633 after 24 hrs; conditions: ATCC 6633, 24 h
Escherichia coli [20] = test: Antibacterial activity against Escherichia coli assessed as zone of inhibition at 50 ug/ml after 3 days by filter paper disc method; conditions: 72 h, read-out: IZ
Escherichia coli [21] = test: Antibacterial activity against Escherichia coli ATCC 11229 after 24 hrs by broth dilution method; conditions: ATCC 11229, 24 h
Staphylococcus aureus [22] = test: Antibacterial activity against Staphylococcus aureus ATCC 6538 after 24 hrs by broth dilution method; conditions: ATCC 6538, 24 h
Bacillus spizizenii [23] = test: Antibacterial activity against Bacillus subtilis ATCC 6633 after 24 hrs by broth dilution method; conditions: ATCC 6633, 24 h
Proteus vulgaris [24] = test: Antibacterial activity against Proteus vulgaris […] after 24 hrs by broth dilution method
Pseudomonas aeruginosa [25] = test: Antibacterial activity against Pseudomonas aeruginosa MTCC 424 assessed as zone of inhibition at 25 ug/ml by agar well diffusion method; conditions: read-out: IZ
Escherichia coli [26] = test: Antibacterial activity against Escherichia coli MTCC 443 assessed as zone of inhibition at 25 ug/ml by agar well diffusion method; conditions: read-out: IZ
Streptococcus pyogenes = test: Antibacterial activity against Streptococcus pyogenes MTCC 442 assessed as zone of inhibition at 25 ug/ml by agar well diffusion method; conditions: read-out: IZ
Staphylococcus aureus [27] = test: Antibacterial activity against Staphylococcus aureus MTCC 96 assessed as zone of inhibition at 25 ug/ml by agar well diffusion method; conditions: read-out: IZ

Q: How did the zone of inhibition at 250 µg/mL (Staphylococcus aureus [1]) turn out when `O=C(N[C@H](CO)[C@H](O)c1ccc([N+](=O)[O-])cc1)C(Cl)Cl` [CHLORAMPHENICOL] was run?
A: 27 mm

Q: And the zone of inhibition at 5 µg/mL (Pseudomonas aeruginosa [2])?
A: 21 to 32 mm

Q: What about the zone of inhibition at 1 µg/mL (Pseudomonas aeruginosa [3]) of the same compound?
A: 21 to 32 mm

Q: And the zone of inhibition at 1 µg/mL (Escherichia coli [4])?
A: 21 to 32 mm

Q: And the zone of inhibition at 1 µg/mL (Staphylococcus aureus [5])?
A: 21 to 32 mm

Q: And the zone of inhibition at 5 µg/mL (Escherichia coli [6])?
A: 21 to 32 mm

Q: And the zone of inhibition at 1 µg/mL (Bacillus subtilis [7])?
A: 21 to 32 mm

Q: And the zone of inhibition at 250 µg/mL (Escherichia coli [8])?
A: 17 mm

Q: Which MIC (Proteus vulgaris [9]) does the source give for `O=C1Nc2c(O)cccc2/C1=N/NC(=O)c1cc2ccccc2o1` here?
A: 31.2 µg/mL (≈ 97.3 µM)

Q: And the Ratio (Proteus vulgaris [10])?
A: 2

Q: Which results are given for `CC1(C)S[C@@H]2[C@H](NC(=O)[C@H](N)c3ccccc3)C(=O)N2[C@H]1C(=O)O` [AMPICILLIN]?
A: zone of inhibition at 50 µg/mL (Staphylococcus aureus [11]): 10 to 30 mm; zone of inhibition at 50 µg/mL (Pseudomonas aeruginosa [12]): 10 to 30 mm; zone of inhibition at 1000 µg/mL (Staphylococcus aureus [13]): 20 to 28 mm; zone of inhibition at 1000 µg/mL (Pseudomonas aeruginosa [14]): 20 to 28 mm; zone of inhibition at 50 µg/mL (Bacillus subtilis [15]): 10 to 30 mm; MIC (Escherichia coli [16]): 3.9 µg/mL (≈ 11.2 µM); zone of inhibition at 1000 µg/mL (Escherichia coli [17]): 20 to 28 mm; MIC (Staphylococcus aureus [18]): 0.48 µg/mL (≈ 1.37 µM); zone of inhibition at 1000 µg/mL (Klebsiella pneumoniae): 20 to 28 mm; MIC (Bacillus spizizenii [19]): 3.9 µg/mL (≈ 11.2 µM); MIC (Proteus vulgaris [9]): 3.9 µg/mL (≈ 11.2 µM); zone of inhibition at 50 µg/mL (Escherichia coli [20]): 10 to 30 mm

Q: What does the source list for `O=C(c1ccc(Br)cc1)c1oc2ccc(Br)cc2c1/C=C/c1c[nH]c2ccccc12`?
A: MIC (Escherichia coli [21]): 3.12 to 6.25 µg/mL (≈ 6 to 12 µM); MIC (Staphylococcus aureus [22]): 3.12 to 6.25 µg/mL (≈ 6 to 12 µM); MIC (Bacillus spizizenii [23]): 3.12 to 6.25 µg/mL (≈ 6 to 12 µM); MIC (Proteus vulgaris [24]): 3.12 to 6.25 µg/mL (≈ 6 to 12 µM)

Q: Which zone of inhibition at 25 µg/mL (Pseudomonas aeruginosa [25]) does the source give for `CCn1cc(C(=O)O)c(=O)c2cc(F)c(N3CCNCC3)cc21` [NORFLOXACIN] here?
A: 19 to 25 mm

Q: What about the zone of inhibition at 25 µg/mL (Escherichia coli [26]) of the same compound?
A: 19 to 25 mm

Q: What about the zone of inhibition at 25 µg/mL (Streptococcus pyogenes) of the same compound?
A: 19 to 25 mm

Q: And the MIC (Proteus vulgaris [9])?
A: 62.5 µg/mL (≈ 196 µM)

Q: And the zone of inhibition at 25 µg/mL (Staphylococcus aureus [27])?
A: 19 to 25 mm

Q: `O=C1Nc2ccccc2/C1=N/NC(=O)c1cc2ccccc2o1` was tested. Which MIC (Escherichia coli [16]) did it give?
A: 250 to 500 µg/mL (≈ 819 to 1640 µM)

Q: What about the MIC (Staphylococcus aureus [18]) of the same compound?
A: 250 to 500 µg/mL (≈ 819 to 1640 µM)

Q: And the MIC (Bacillus spizizenii [19])?
A: 250 to 500 µg/mL (≈ 819 to 1640 µM)

Q: What about the MIC (Proteus vulgaris [9]) of the same compound?
A: 250 to 500 µg/mL (≈ 819 to 1640 µM)

Q: `COc1cc(OC)c(-c2cc3cc(C(=O)/C=C/c4ccc5occc5c4)cc(OC)c3o2)c(OC)c1` was tested. Which zone of inhibition at 25 µg/mL (Pseudomonas aeruginosa [25]) did it give?
A: 21 to 28 mm

Q: And the zone of inhibition at 25 µg/mL (Escherichia coli [26])?
A: 21 to 28 mm

Q: And the zone of inhibition at 25 µg/mL (Streptococcus pyogenes)?
A: 21 to 28 mm

Q: What about the zone of inhibition at 25 µg/mL (Staphylococcus aureus [27]) of the same compound?
A: 21 to 28 mm
